Test results taken from patent US20080131500A1, “METHODS AND COMPOSITIONS FOR RAPID INACTIVATION OF PROTEINS” (The Board of Regents of The University of Texas System, priority 2006, published 2008).
Like-named read-outs stand apart in the source and are kept apart here.

How the values were obtained:
hirudin [1] = molecular target: T1, hirudin (Hirudo medicinalis, UniProt P01050); test: Reduction of native hirudin in 1N NaOH, 50 mM DTT with added denaturant (GdnCl or GdnSCN), HPLC analysis; assay type: biochemical
Protocol: FIG. 3. […] N indicates native hirudin.
Denaturant is known to destabilize the conformation of native protein and decrease the covalent stability of disulfide bonds against reduction. In addition to the optimized pH (13.5) for hirudin reduction described above, denaturant (GdnCl and GdnSCN) was included to further accelerate the rate of reduction. Native hirudin (N) was incubated at 22° C. in solutions comprising 1N NaOH, 50 mM DTT and increasing concentrations of GdnCl (0.2M-2M) or GdnSCN (0.1M-I M). […] In the presence of 1M of GdnSCN, the reduction of hirudin completes within one minute.

hirudin [2] = molecular target: T1, hirudin; test: Reduction of native hirudin by DTT at pH 9.0, 11.0 and 13.5, HPLC analysis; assay type: biochemical; conditions: for rate constant of hirudin reduction: 50 mM DTT, 22° C.
Protocol: FIG. 2. […] N-Hirudin (1 mg/ml) was reduced with 50 mM DTT at 22° C. in solutions of pH 9.0, pH 11.0 and pH 13.5. The buffers of pH 9.0 and 11.0 were prepared by the titration of 0.1N NaHC03 and 0.1N NaOH. The samples were quenched at different time points by acidification and analyzed by HPLC using the following conditions. Solvent A for HPLC was water containing 0.1% trifluoroacetic acid. Solvent B was acetonitrile/water (9:1, by volume) containing 0.086% trifluoroacetic acid. The gradient was 27% to 36% solvent B linear in 25 min. The flow rate was 0.5 ml/min. The column was Zorbax 300SB C-18 for peptides and proteins, 4.6 mm, 5 pm. Column temperature was 22° C. N indicates native hirudin.
Reduction of protein disulfide bonds by a reducing agent (such as β-mercaptoethanol, dithiothreitol or tris-carboxyethyl-phosphine) is typically performed at pH 8.0-8.5. […] Hirudin (a 3-disulfide protein) is used as an example here. Native hirudin was incubated with 20 mM, 50 mM or 100 mM of DTT at 22° C. in solutions of pH 9.0, 11.0 and 13.5 respectively. […] Thus, increase of pH from 9.0 to 13.5 accelerates the rate of reduction of hirudin at room temperature by approximately 30-fold. Similar effect of pH was also observed at DTT concentrations of 20 mM and 100 mM.

[3] = cited from earlier work

T1 sequence (P01050 whole entry, looked up): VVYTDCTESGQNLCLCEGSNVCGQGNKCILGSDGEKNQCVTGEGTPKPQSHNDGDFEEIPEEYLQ

Molecule: Cl.N=C(N)N [GdnCl, guanidinium chloride]
- potency of 6M GdnCl relative to 1M GdnSCN (hirudin [1]; 6M GdnCl versus 1M GdnSCN): about 3 fold
- potency relative to GdnSCN (hirudin [1]; acceleration of hirudin reduction in 1N NaOH, 50 mM DTT): approximately 50%

Molecule: N#CS.N=C(N)N [GdnSCN, guanidine thiocyanate]
- time to complete reduction of hirudin (hirudin [1]; 1M GdnSCN in 1N NaOH, 50 mM DTT, 22° C.): one
- further acceleration of the reduction of hirudin (hirudin [1]; inclusion of 0.2M GdnSCN in 1N NaOH, 50 mM DTT, 22° C.): 2.5 fold
- further acceleration of the reduction of hirudin (hirudin [1]; inclusion of 0.5M GdnSCN in 1N NaOH, 50 mM DTT, 22° C.): 5 fold

Molecule: O[C@H](CS)[C@H](O)CS (racemic) [DTT, dithiothreitol]
- rate constant of hirudin reduction (hirudin [2]; pH 9.0): 0.00377 min⁻¹
- rate constant of hirudin reduction (hirudin [2]; pH 11.0): 0.0235 min⁻¹
- acceleration of the rate of reduction of hirudin (hirudin [2]; increase of pH from 9.0 to 13.5, room temperature): approximately 30 fold

Molecule: hirudin
- hirudin in a denatured state ([3]; 6 M GdnCl): 67%
- hirudin in a denatured state ([3]; 8 M urea): 14%
